Measurements published in ChEMBL document CHEMBL1201862, “PubChem BioAssay data set” (2004).
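96-well plates; 48 h exposure; 5 concentrations. Endpoints by linear interpolation between flanking doses. Not reached: highest tested concentration assigned. GI50 marks 50% less growth.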 Activity calls are given as the source filed them. No stated cut-off is given here; in the data, active = GI50 up to about 1.1 µM and inactive = higher.

How the values were obtained:
Test in all cases: DTP human tumour cell line panel, 48 h
786-0 = tested on: 786-0
A549 = tested on: A549
BT-549 = tested on: BT-549
CAKI-1 = tested on: CAKI-1
CCRF-CEM = tested on: CCRF-CEM
HT-29 = tested on: HT-29
KM12 = tested on: KM12
MCF7 = tested on: MCF7
MDA-MB-435 = tested on: MDA-MB-435
MOLT-4 = tested on: MOLT-4
NCI-H460 = tested on: NCI-H460
NCI/ADR-RES = tested on: NCI/ADR-RES
OVCAR-4 = tested on: OVCAR-4
OVCAR-8 = tested on: OVCAR-8
RXF 393 = tested on: RXF 393
SF-539 = tested on: SF-539
SK-MEL-2 = tested on: SK-MEL-2
SN12C = tested on: SN12C
T47D = tested on: T47D

Measured: GI50

COC(=O)C1=C(C)N2[C@H](C(=O)O)CO[C@@]2(C)[C@H](C(=O)OC)[C@H]1c1cccc([N+](=O)[O-])c1
inactive: 786-0 > 100 µM | A549 > 100 µM | BT-549 > 100 µM | CAKI-1 > 100 µM | CCRF-CEM > 100 µM | HT-29 > 100 µM | KM12 > 100 µM | MCF7 > 100 µM | MDA-MB-435 > 100 µM | MOLT-4 > 100 µM | NCI-H460 > 100 µM | NCI/ADR-RES > 100 µM | OVCAR-4 > 100 µM | OVCAR-8 > 100 µM | RXF 393 > 100 µM | SF-539 > 100 µM | SK-MEL-2 > 100 µM | SN12C > 100 µM | T47D > 100 µM

CC(NC(=O)NC(C)(C)C)NC(=O)C(N)CC(=O)O (stereo not given)
inactive: 786-0 > 100 µM | A549 > 100 µM | BT-549 > 100 µM | CAKI-1 > 100 µM | CCRF-CEM > 100 µM | HT-29 > 100 µM | KM12 > 100 µM | MCF7 > 100 µM | MDA-MB-435 > 100 µM | MOLT-4 > 100 µM | NCI-H460 > 100 µM | NCI/ADR-RES > 100 µM | OVCAR-4 > 100 µM | OVCAR-8 > 100 µM | RXF 393 > 100 µM | SF-539 > 100 µM | SK-MEL-2 > 100 µM | SN12C > 100 µM | T47D > 100 µM

O=C(O)CCCCCNC(=O)CCC(CN(CC(=O)OCc1ccccc1)CC(=O)OCc1ccccc1)N(CC(=O)OCc1ccccc1)CC(=O)OCc1ccccc1 (stereo not given)
inactive: 786-0 18 µM | A549 17.4 µM | BT-549 18.9 µM | CAKI-1 18.3 µM | CCRF-CEM 16 µM | HT-29 17.9 µM | KM12 17.6 µM | MCF7 19.4 µM | MDA-MB-435 19.4 µM | MOLT-4 15.2 µM | NCI-H460 30.4 µM | NCI/ADR-RES 20.3 µM | OVCAR-4 16.9 µM | OVCAR-8 16.5 µM | RXF 393 14.7 µM | SF-539 20.7 µM | SK-MEL-2 16 µM | SN12C 18.4 µM | T47D 17.2 µM

Cc1c(-c2ccccc2)c(C#N)c2nnn(C)c(=O)n12
inactive: 786-0 > 100 µM | A549 > 100 µM | BT-549 > 100 µM | CAKI-1 > 100 µM | CCRF-CEM > 100 µM | HT-29 > 100 µM | KM12 > 100 µM | MCF7 > 100 µM | MDA-MB-435 > 100 µM | NCI-H460 > 100 µM | NCI/ADR-RES > 100 µM | OVCAR-4 > 100 µM | OVCAR-8 > 100 µM | RXF 393 57.1 µM | SF-539 > 100 µM | SK-MEL-2 > 100 µM | SN12C > 100 µM | T47D > 100 µM

Oc1c(Br)c(-c2ccccc2)nc2ccccc12
inactive: A549 1.98 µM | BT-549 58.1 µM | CAKI-1 6.32 µM | CCRF-CEM 44 µM | HT-29 > 60.4 µM | KM12 1.18 µM | MCF7 59.2 µM | MDA-MB-435 43.3 µM | MOLT-4 8.15 µM | NCI-H460 10 µM | NCI/ADR-RES 35.1 µM | OVCAR-4 39.6 µM | RXF 393 63.1 µM | SF-539 82.8 µM | SK-MEL-2 > 10 µM | SN12C 6.67 µM | T47D 8.3 µM

Cc1ccc(C(=O)CC(Cl)=C(Cl)Cl)cc1
inactive: 786-0 63.1 µM | A549 > 100 µM | BT-549 > 100 µM | CAKI-1 38.8 µM | CCRF-CEM 25.8 µM | HT-29 > 100 µM | KM12 > 100 µM | MCF7 > 100 µM | MDA-MB-435 55.7 µM | MOLT-4 20.5 µM | NCI-H460 > 100 µM | NCI/ADR-RES > 100 µM | OVCAR-4 63.2 µM | OVCAR-8 > 100 µM | RXF 393 78.5 µM | SF-539 > 100 µM | SK-MEL-2 > 100 µM | T47D 50.6 µM
